The values below come from patent US8183243B2, “Melanocortin receptor agonists” (LG Life Sciences Ltd., priority 2008, dated 2012).

The target in the first experiment is T1, MC4R (Homo sapiens, UniProt P32245).
T1 construct: expressed in transfected cells; host or cells: HEK (Human Embryonic Kidney) permanent expression cell line HEK MC4R-Luc, co-expressing CRE-luciferase
T1 sequence (P32245 whole entry, species assumed): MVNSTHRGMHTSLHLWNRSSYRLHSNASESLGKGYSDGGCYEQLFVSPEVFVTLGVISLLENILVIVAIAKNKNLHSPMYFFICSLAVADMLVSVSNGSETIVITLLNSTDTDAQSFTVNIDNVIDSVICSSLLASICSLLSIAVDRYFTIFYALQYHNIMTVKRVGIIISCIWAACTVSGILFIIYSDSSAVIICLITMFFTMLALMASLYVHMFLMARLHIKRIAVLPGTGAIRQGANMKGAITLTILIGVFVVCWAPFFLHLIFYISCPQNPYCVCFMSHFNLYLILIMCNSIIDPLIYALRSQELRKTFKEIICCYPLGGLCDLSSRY
In words: MCR agonistic activity (luciferase assay / cAMP accumulation assay) on MC4R. Particulars: HEK cell lines expressing MC4R; method A (CRE-luciferase) or B (cAMP accumulation), not said which; read-out: EC50 value, agonistic activity to MC4R (range per group of Examples). The experiment is classed as cell-based. As to the method: Physiological activity of the compounds of the present invention was assessed by measuring agonistic activity as well as binding activity for melanocortin receptors (MCR) according to methods A and B explained as follows.
As one of the methods to measure MCR agonistic activity of the compound according to the present invention, the expression level of a marker gene (for example, luciferase) which increases proportionally according to the increase of cAMP content in the cell, was measured.
First, permanent expression HEK (Human Embryonic Kidney) cell lines (HEK MC1R-Luc, MC3R-Luc, MC4R-Luc or MC5R-Luc) expressing the MCR gene of each subtype together with luciferase gene (CRE-LUC) under the control of CRE (cAMP Response Element) were constructed. The above cell lines were incubated in an incubator with 6% CO2 atmosphere at 37° C. using selection medium, DMEM(Dulbecco's Modified Eagles Medium) containing 10% heat-inactivated fetal bovine serum (Gibco/BRL), 100 unit/ml, penicillin (Gibco/BRL), 100 unit/ml streptomycin (Gibco/BRL), and 200 μg/ml geneticin (G418) (Gibco/BRL). When the cell covered 70% of total surface of the culture dish with 100 mm diameter, the culture dish was rinsed one time with 10 ml Phosphate Buffered Saline(PBS) free of Ca^++ and Mg^++, and then 3 ml PBS solution containing 0.05% trypsin and 0.53 mM EDTA was added thereto. After the trypsin/EDTA solution was removed, the cell lines were incubated in an thermostatic incubator for 1 minute at 37° C., and resuspended in 10 ml selection medium and centrifuged for 5 minutes at 1500 rpm. The supernatant was discarded and the settled cells were resuspended in 5 ml selection medium free of Phenol Red. The resulting cell-suspension was plated onto each well of 96-well culture plates for Luminometer(Costar) with a concentration of 5×10^4 cell in 100 μl culture medium for each well and incubated in the incubator with 6% CO2 atmosphere at 37° C. for 18 hours. With MCR agonists (Example compounds) diluted stepwise using the above culture medium, the cells were treated under the condition of the final DMSO concentration not exceeding 1%, and incubated for 5 hours in the atmosphere of 6% CO2 at 37° C. Then, 50 μl Bright-Glo (Promega) was added to each well. After allowing the treated cells to be at room temperature for 15 minutes, luminescence was measured for each well by using luminometer (Victor). The level of luminescence induced by the stepwise-diluted agonist was converted to relative % value to those by the treatment of 10 nM NDP-MSH. The EC50 indicates the concentration of each agonist for inducing 50% of maximal luminescence by each agonist and this value was measured by a statistical software (Prizm).
B. cAMP Accumulation Assay
As another method to measure MCR agonistic activity of the compound according to the present invention, an increase of cAMP amount in the cell was measured.
First, permanent expression HEK (Human Embryonic Kidney) cell lines (HEK MC1R-Luc, MC3R-Luc, MC4R-Luc or MCSR-Luc) expressing the MCR gene of each subtype were plated onto each well of 24-well culture plates for Luminometer(Costar) with a concentration of 2×10^5 cell in 1 ml culture medium for each well, and then incubated in an incubator with 6% CO2 atmosphere at 37° C. for 24 hours. The medium was removed from each well followed by rinsing with 0.5 ml cold DMEM one time. With MCR agonists (Example compounds) diluted stepwise using 200 μl DMEM including 500 μM IBMX (isobutylmethylxanthine), the cells were treated under the condition of the final DMSO concentration not exceeding 1%, and incubated for 30 minutes in the atmosphere of 6% CO2 at 37° C. Then, the cAMP amount in each cell was measured using Amersham cAMP assay Kit (TRK432).
More specifically, 14.4 μl of 6M PCA (60%) was added to each well, and allowed to be in ice for 10 minutes, and 200 μl sample was taken from each well and transferred to microcentrifuge tube. […]
For `CN1CCN(C(=O)[C@@H]2C[C@H](N(C(=O)[C@@H]3CCCO3)[C@H]3CC[C@@H](C)CC3)CN2C(=O)[C@@H]2CN(c3ccc(Cl)nn3)C[C@H]2c2ccc(F)cc2F)CC1` [Example 44, (2S)-N-{(3S,5S)-1-{[(3S,4R)-4-(2,4-difluorophenyl)-1-(6-chloropyridazin-3-yl)pyrrolidin-3-yl]carbonyl}-5-[(4-methylpiperazin-1-yl)carbonyl]pyrrolidin-3-yl}-N-(cis-4-methylcyclohexyl)tetrahydrofuran-2-carboxamide], the EC50 lay within 10 to 100 nM.

Take `CC1CCC(N(C(=O)C2CCCO2)C2CC(C(=O)N3CCN(C)CC3)N(C(=O)C3CN(c4cccnn4)CC3c3ccc(F)cc3F)C2)CC1` (centres unmarked) [Example 66]: the EC50 was 0.1 to 10 nM.

As to `CN1CCN(C(=O)[C@@H]2C[C@H](N(C(=O)C(C)(C)C)C3CCC(C)(C)CC3)CN2C(=O)[C@@H]2CN(c3nccs3)C[C@H]2c2ccc(Cl)cc2)CC1` [Example 70, N-{(3S,5S)-1-{[(3S,4R)-4-(4-chlorophenyl)-1-(1,3-thiazole-2-yl)pyrrolidin-3-yl]carbonyl}-5-[(4-methylpiperazin-1-yl)carbonyl]pyrrolidin-3-yl}-N-(4,4-dimethylcyclohexyl)-2,2-dimethylpropanamide], the concentration giving a half-maximal response (EC50) fell in the range of 100 to 1000 nM.

In the case of `CN1CCN(C(=O)[C@@H]2C[C@H](N(C(=O)[C@@H]3CCCO3)C3CCC(C)(C)CC3)CN2C(=O)[C@@H]2CN(c3cccnn3)C[C@H]2c2ccc(F)cc2F)CC1` [Example 45], the EC50 fell in the range of 0.1 to 10 nM.

With `CCN1CCN(C(=O)[C@@H]2C[C@H](N(C(C)=O)C3CCC(F)(F)CC3)CN2C(=O)[C@@H]2CN(C(C)(C)C)C[C@H]2c2ccc(Cl)cc2)CC1` [Example 28, N-{(3S,5S)-1-{[(3S,4R)-1-tert-butyl-4-(4-chlorophenyl)pyrrolidin-3-yl]carbonyl}5-[(4-ethylpiperazin-1-yl)carbonyl]pyrrolidin-3-yl}-N-(4,4-difluorocyclohexyl)acetamide], the EC50 fell in the range of 100 to 1000 nM.

On to `CC(C)N1CCN(C(=O)[C@@H]2C[C@H](N(C(=O)[C@@H]3CCCO3)C3CCC(C)(C)CC3)CN2C(=O)[C@@H]2CN(C(C)(C)C)C[C@H]2c2ccc(Cl)cc2)CC1` [Example 13, (2S)-N-{(3S,5S)-1-{[(3S,4R)-1-tert-butyl-4-(4-chlorophenyl)pyrrolidin-3-yl]carbonyl}-5-[(4-isopropylpiperazin-1-yl)carbonyl]pyrrolidin-3-yl}-N-(4,4-dimethylcyclohexyl)tetrahydrofuran-2-carboxamide], for which the EC50 lay in the range of 0.1 to 10 nM.

In the case of `CN1CCN(C(=O)[C@@H]2C[C@H](N(C(=O)[C@@H]3CCCO3)C3CCC(C)(C)CC3)CN2C(=O)[C@@H]2CN(C(C)(C)C)C[C@H]2c2ccc(F)cc2F)CC1` [Example 14, (2S)-N-{(3S,5S)-1-{[(3S,4R)-1-tert-butyl-4-(2,4-difluorophenyl)pyrrolidin-3-yl]carbonyl}-5-[(4-methylpiperazin-1-yl)carbonyl]pyrrolidin-3-yl}-N-(4,4-dimethylcyclohexyl)tetrahydrofuran-2-carboxamide], the EC50 was in the range of 0.1 to 10 nM.

In the case of `CN1CCN(C(=O)[C@@H]2C[C@H](N(C(=O)[C@@H]3CCCO3)C3CCC(C)(C)CC3)CN2C(=O)[C@@H]2CN(C3CCOCC3)C[C@H]2c2ccc(Cl)cc2)CC1` [Example 41, (2S)-N-{(3S,5S)-1-{[(3S,4R)-4-(4-chlorophenyl)-1-(tetrahydro-2H-pyran-4-yl)pyrrolidin-3-yl]carbonyl}-5-[(4-methylpiperazin-1-yl)carbonyl]pyrrolidin-3-yl}-N-(4,4-dimethylcyclohexyl)tetrahydrofuran-2-carboxamide], the EC50 was 0.1 to 10 nM.

As for `CN1CCN(C(=O)[C@@H]2C[C@H](N(C(=O)[C@@H]3CCCO3)[C@H]3CC[C@@H](C)CC3)CN2C(=O)[C@H]2CN(C(C)(C)C)C[C@H]2c2ccc(Cl)cc2)CC1` [Example 74, (2S)-N-{(3S,5S)-1-{[(3R,4R)-1-tert-butyl-4-(4-chlorophenyl)pyrrolidin-3-yl]carbonyl}-5-[(4-methylpiperazin-1-yl)carbonyl]pyrrolidin-3-yl}-N-(cis-4-methylcyclohexyl)tetrahydrofuran-2-carboxamide], the half-maximal effective concentration (EC50) is 10 to 100 nM.

For the molecule `CN1CCN(C(=O)[C@H]2C[C@H](N(C(=O)C(C)(C)CO)[C@H]3CC[C@@H](C)CC3)CN2C(=O)[C@@H]2CN(C(C)(C)C)C[C@H]2c2ccc(Cl)cc2)CC1` [Example 36, N-{(3S,5R)-1-{[(3S,4R)-1-tert-butyl-4-(4-chlorophenyl)pyrrolidin-3-yl]carbonyl}-5-[(4-methylpiperazin-1-yl)carbonyl]pyrrolidin-3-yl}-3-hydroxy-2,2-dimethyl-N-(cis-4-methylcyclohexyl)propanamide], the EC50 lay in the range of 0.1 to 10 nM.

As to `CN1CCN(C(=O)[C@@H]2C[C@H](N(C(=O)C(C)(C)C)C3CCC(C)(C)CC3)CN2C(=O)[C@@H]2CN(C(C)(C)C)C[C@H]2c2ccc(F)cc2F)CC1` [Example 11, N-{(3S,5S)-1-{[(3S,4R)-1-tert-butyl-4-(2,4-difluorophenyl)pyrrolidin-3-yl]carbonyl}-5-[(4-methylpiperazin-1-yl)carbonyl]pyrrolidin-3-yl}-N-(4,4-dimethylcyclohexyl)-2,2-dimethylpropanamide], the EC50 lay in the range of 0.1 to 10 nM.

For the molecule `CN1CCN(C(=O)[C@@H]2C[C@H](N(C(=O)C(C)(C)C)C3CCC(F)(F)CC3)CN2C(=O)[C@@H]2CN(C(C)(C)C)C[C@H]2c2ccc(F)cc2F)CC1` [Example 30, N-{(3S,5S)-1-{[(3S,4R)-1-tert-butyl-4-(2,4-difluorophenyl)pyrrolidin-3-yl]carbonyl}-5-[(4-methylpiperazin-1-yl)carbonyl]pyrrolidin-3-yl}-N-(4,4-difluorocyclohexyl)-2,2-dimethylpropanamide], the EC50 is 0.1 to 10 nM.

As for `CCN1CCN(C(=O)[C@@H]2C[C@H](N(C(C)=O)C3CCC(C)(C)CC3)CN2C(=O)[C@@H]2CN(C(C)(C)C)C[C@H]2c2ccc(F)cc2F)CC1` [Example 6, N-{(3S,5S)-1-{[(3S,4R)-1-tert-butyl-4-(2,4-difluorophenyl)pyrrolidin-3-yl]carbonyl}-5-[(4-ethylpiperazin-1-yl)carbonyl]pyrrolidin-3-yl}-N-(4,4-dimethylcyclohexyl)acetamide], the EC50 was in the range of 10 to 100 nM.

Turning to `CN1CCN(C(=O)[C@@H]2C[C@H](N(C(=O)C(C)(C)C)[C@H]3CC[C@@H](C)CC3)CN2C(=O)[C@@H]2CN(C(C)(C)C)C[C@H]2c2ccc(Cl)cc2)CC1` [Example 17, N-{(3S,5S)-1-{[(3S,4R)-1-tert-butyl-4-(4-chlorophenyl)pyrrolidin-3-yl]carbonyl}5-[(4-methylpiperazin-1-yl)carbonyl]pyrrolidin-3-yl}-2,2-dimethyl-N-(cis-4-methylcyclohexyl)propanamide], the EC50 lay within 0.1 to 10 nM.

On to `CN1CCN(C(=O)[C@@H]2C[C@H](N(C(=O)C(C)(C)CO)[C@H]3CC[C@@H](C)CC3)CN2C(=O)[C@@H]2CN(C3CC3)C[C@H]2c2ccc(Cl)cc2)CC1` [Example 59, N-{(3S,5S)-1-{[(3S,4R)-4-(4-chlorophenyl)-1-cyclopropylpyrrolidin-3-yl]carbonyl}-5-[(4-methylpiperazin-1-yl)carbonyl]pyrrolidin-3-yl}-N-(cis-4-methylcyclohexyl)-3-hydroxy-2,2-dimethylpropanamide], for which the concentration giving a half-maximal response (EC50) was in the range of 0.1 to 10 nM.

The experiment is the same for the next values; noted with them: specific activities of representative compounds; HEK cell lines expressing MC4R; method A or B, not said which; read-out: EC50.
With `CN1CCN(C(=O)[C@@H]2C[C@H](N(C(=O)[C@@H]3CCCO3)C3CCC(C)(C)CC3)CN2C(=O)[C@@H]2CN(c3cccnn3)C[C@H]2c2ccc(F)cc2F)CC1` [Example 45], the EC50 is 8 nM.

For `CN1CCN(C(=O)[C@@H]2C[C@H](N(C(=O)[C@@H]3CCCO3)C3CCC(C)(C)CC3)CN2C(=O)[C@@H]2CN(C3CCOCC3)C[C@H]2c2ccc(Cl)cc2)CC1` [Example 41, (2S)-N-{(3S,5S)-1-{[(3S,4R)-4-(4-chlorophenyl)-1-(tetrahydro-2H-pyran-4-yl)pyrrolidin-3-yl]carbonyl}-5-[(4-methylpiperazin-1-yl)carbonyl]pyrrolidin-3-yl}-N-(4,4-dimethylcyclohexyl)tetrahydrofuran-2-carboxamide], the half-maximal effective concentration (EC50) was determined as 3 nM.

As a reminder, the EC50 is the concentration giving half of the maximal effect.
